Test results: paper PMC5113208 (2016)

Tested on: RNA Spinach (RNA, aptamer) GGACGCGACCGAAAUGGUGAAGGACGGGUCCAGUGCGAAACACGCACUGUUGAGUAGAGUGUGAGCUCCGUAACUGGUCGCGUC
Experiment: fluorescence titration
Conditions: 140 mM KCl, 1 mM MgCl2; 10 mM NaH2PO4 pH 7.2, 0.05% Tween-20, room temperature

Compound: CC1=N/C(=C\c2cc(F)c(O)c(F)c2)C(=O)N1C
- KD: 420 ± 40 nM
